Where no end group is shown, it is not given here.
Legend:
Type in all cases: cell-based
human red blood cells = assay: Haemolytic assay; conditions: human red blood cells, one hour at 37° C.; for Haemolysis (%) 25 μM: peptide 25 μM; for Haemolysis (%) 200 μM: peptide 200 μM
Protocol: Selected synthesised peptide analogues were also screened for haemolytic activity using human red blood cells as described previously (Sperstad, S. V., et al. (2009) Dev. Comp. Immunol. 33, 583-591). The assay was performed on 96-well U-shaped microtiter plates (Nagle Nunc) with 50 μl peptide sample, 40 μl phosphate-buffered saline (PBS) and 10 μl red blood cells. After one hour of incubation at 37° C. in a shaker, the plate was centrifuged at 200 g for 5 min and the supernatants (60 μl) were carefully transferred to a new flat-bottomed polycarbonate microtiter plate (Nagle Nunc) and the release of haemoglobin (absorbance at 550 nm) was measured on a Synergy H1 multimode reader (BioTek, Vt., USA). Cell suspension added 0.05% Triton X-100 (Sigma-Aldrich, Mo., USA) in PBS served as positive (100% haemolysis) control and cell suspension added PBS served as negative (0% haemolysis, blank) control. The percent haemolysis was calculated using the formula [(Asample-Abaseline)/(Atriton-Abaseline)]×100. The cytotoxic peptide melittin (Sigma-Aldrich) was used as a positive control peptide and for comparison. The experiment was performed in triplicates with peptide concentrations ranging from 200 μM to 1.56 μM in two-fold dilutions.

Aureobasidium pullulans = conditions: 24 h
Protocol: (§1) The synthetic peptides were also screened for antifungal activity against Candida albicans (ATCC 10231), Aureobasidium pullulans and Rhodotorula sp. (the last two were obtained from Professor Arne Tronsmo, The Norwegian University of Life Sciences, As, Norway). The antifungal assay was performed as previously described (Sperstad, S. V., et al. (2009) Dev. Comp. Immunol. 33, 583-591). Briefly, fungal spores were dissolved in potato dextrose broth (Difco, Lawrence, Kans., USA) to a concentration of 4×10^5 spores/ml. The spores (50 μl) were inoculated on 96-well Nunclon™ microtiter plates containing the synthetic peptides (50 μl) dissolved in MQ-H2O. […] The negative (growth) control consisted of medium and fungal solution. The peptides were tested for activity in concentrations ranging from 100 to 0.1 μM in two-fold serial dilutions. All tests were performed in triplicates.

Rhodotorula sp. = conditions: 24 h
Protocol: as §1

[1] = test system: Candida albicans (ATCC 10231); conditions: ATCC 10231, 24 h
Protocol: as §1

[2] = test system: Escherichia coli (Ec, ATCC 25922); conditions: ATCC 25922, 24 h
Protocol: (§2) The peptides were screened for antibacterial activity against two strains of Gram-positive and two strains of Gram-negative bacteria; Corynebacterium glutamicum (Cg, ATCC 13032), Staphylococcus aureus (Sa, ATCC 9144), Pseudomonas aeruginosa (Pa, ATCC 27853) and Escherichia coli (Ec, ATCC 25922).
(§3) Cultures stored at −80° C. in glycerol were transferred to Müller-Hinton plates (MH, Difco, Lawrence, Kans., USA) and incubated for 24 h at 35° C. A few colonies of each bacterial strain were transferred to 5 ml liquid MH medium and left shaking at room temperature overnight at 600 rpm. Cultures of actively growing bacteria (20 μl) were inoculated in 5 ml MH medium and left shaking for 2 h at room temperature. The antibacterial assays were performed as previously described by Sperstad, S. V., et al. ((2009) Mol. Immunol. 46, 2604-2612) with the following exception: bacterial cultures were diluted with medium to 2.5-3×10^4 bacteria/ml concentrations. An aliquot of 50 μl (1250-1500 bacterial cells) was added to each well in 96-well Nunclon™ microtiter plates (Nagle Nunc Int., Denmark) preloaded with peptide solution (50 μl).
(§4) The microtiter plates were incubated for 24 h at 35° C. with optical density recorded every hour using an Envision 2103 multilabel reader, controlled by a Wallac Envision manager (PerkinElmer, Conn., USA). Minimum inhibitory concentration (MIC) was defined as a sample showing complete inhibition (as measured by optical density at 595 nm) compared to the negative (growth) controls, consisting of bacteria and water. Oxytetracycline (20 μM) served as a positive (inhibition) control.
(§5) The synthetic peptides were tested for antibacterial activity in concentrations ranging from 200 to 0.1 μM in two-fold dilutions. All tests were performed in triplicates.

[3] = test system: Corynebacterium glutamicum (Cg, ATCC 13032); conditions: ATCC 13032, 24 h
Protocol: as §2, §3, §4, §5

[4] = test system: Staphylococcus aureus (Sa, ATCC 9144); conditions: ATCC 9144, 24 h
Protocol: as §2, §3, §4, §5

[5] = test system: Pseudomonas aeruginosa (Pa, ATCC 27853); conditions: ATCC 27853, 24 h
Protocol: as §2, §3, §4, §5

| Substance | Haemolysis (%) 25 μM (human red blood cells) [%] | Haemolysis (%) 200 μM (human red blood cells) [%] | Haemolysis (%) 200 μM (human red blood cells; listed as full HC) [%] | MIC (μM) A. pullulans (Aureobasidium pullulans) [µM] | MIC (μM) Rhodotorula sp. (Rhodotorula sp.) [µM] | MIC (μM) C. albicans [1] [µM] | MIC (μM) Ec [2] [µM] | MIC (μM) Cg [3] [µM] | MIC (μM) Sa [4] [µM] | MIC (μM) Pa [5] [µM] |
| --- | --- | --- | --- | --- | --- | --- | --- | --- | --- | --- |
| GWWRRTVDKVRNAGRKVAGFASKACGALGH [HC, reference compound] | 13.5 | 74.6 | 75 | 12.5 | 12.5 | 100 | 0.8 | 0.4 | 3.1 | 1.6 |
| GWWRRTVAKVRNAGRK-NH2 [HC(1-16)A8, GWWRRTVAKVRNAGRK] | 0.0 | 5.0 |  |  |  |  | 3.1 | 0.8 | 12.5 | 3.1 |
| GWWRRKVAKVRK-NH2 [HC(1-12)K6A8K12, GWWRRKVAKVRK-NH2] |  |  |  | 25 | 25 | 50 | 12.5 | 1.6 | 12.5 | 50 |
| AWWRRTVAKVRK-NH2 [Peptide G1A, AWWRRTVAKVRK-NH2] | 0.0 | 1.6 |  | 50 | 12.5 | 25 | 12.5 | 0.8 |  | 6.3 |
| GWWRRTVDKVRNAGRK [HC(1-16), GWWRRTVDKVRNAGRK] | 0.0 | 0.0 |  | 50 | 25 | 100 | 6.3 | 0.8 | 200 | 12.5 |
| GWARRTVAKVRK-NH2 [Peptide W3A, GWARRTVAKVRK-NH2] | 0.0 | 0.0 |  | 50 | 25 | 50 |  | 0.8 |  |  |
| RWWRRWVRRVRR-NH2 [HC(1-12)R1W6R8,9,12-NH2, RWWRRWVRRVRR-NH2] |  |  |  | 25 | 3.1 | 12.5 | 3.1 | 0.8 | 3.1 | 3.1 |
| GWARRWVAKVRK-NH2 [HC(1-12)A3W6A8K12, GWARRWVAKVRK-NH2] |  |  |  | 25 | 6.3 | 6.3 | 6.3 | 0.8 | 50 | 12.5 |
| GWWRRTVAKVRA-NH2 [Peptide K12A, GWWRRTVAKVRA-NH2] | 0.0 | 0.0 |  | 50 | 12.5 | 25 |  | 0.8 | 50 |  |
| H-GWWRRTVRK-NH2 [HC(1-9)R8, GWWRRTVRK] |  |  |  |  |  |  | 50 | 3.1 | 100 | 25 |

— patent US20200071357A1, “ANTIMICROBIAL PEPTIDES” (UNIVERSITETET I TROMSØ - NORGES ARKTISKE UNIVERSITET, priority 2016, published 2020)
